Where “and” joins values, the source holds several entries; their conditions need not be identical. Equal entries are not always repeated.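 Following 48 hours of exposure in 96-well plates, responses at five concentrations were used to interpolate endpoints linearly. Abbreviation: GI50, concentration required for 50% inhibition of growth. At the TGI there is no net growth.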
Legend:
Assay in all cases: NCI tumour cell line growth inhibition, 48 h
[1] = tested on: HOP-18 NSCLC
[2] = tested on: RXF-631 renal
[3] = tested on: DMS 273 small cell lung
[4] = tested on: DLD-1 colon
[5] = tested on: T-47D breast
[6] = tested on: MDA-N
[7] = tested on: XF 498 CNS
[8] = tested on: LXFL 529 NSCLC

Compound	TGI [1] [µM]	TGI [3] [µM]	TGI [4] [µM]	GI50 [5] [µM]	TGI [5]	TGI [8] [µM]	also measured
CN(C)C(=S)/N=c1\ssc(=Nc2ccccc2)n1-c1ccccc1	> 100	48.5	> 100				TGI [2]: > 100 µM
CC(C)(C)OC(=O)NCCCCCCCCCCCCn1c2c(c3ccccc3c1=O)C(=O)c1ccccc1-2				> 100	> 100 µM		
CC(C)C(Br)C(=O)NCC(=O)O (stereo not drawn)					> 100 µM		TGI [6]: > 100 µM
S=C(Nc1ccc(-c2nc3ccccc3s2)cc1)Nc1ccc(-c2nc3ccccc3s2)cc1				18.8	> 100 µM		
CN1C2C=CC(=O)C1C(C#N)C2 (stereo not drawn)					75.9 µM and > 100 µM		TGI [6]: > 100 µM
COc1ccc(OCC(=O)O)c2c1CCC(C)C2=O (stereo not drawn)	> 100	> 100	> 100				TGI [7]: > 100 µM; TGI [2]: > 100 µM
Cc1cccc(C=NC23CC4CC(CC(C4)C2)C3)c1	> 100	> 100	> 100				TGI [7]: > 100 µM
O=C(Nc1ccccc1)N1C(c2ccccc2)=N[C@@H](c2ccccc2)[C@@H]1c1ccccc1	50.7		35.6			31.6	TGI [2]: 79 µM
COc1ccc(C(=O)Cn2c(C(=O)c3ccc(Cl)cc3)nc(-c3ccccc3)c2-c2ccccc2)cc1				> 100	> 100 µM		
N.N.N.N.O=S([O-])[O-].[Co+3].[N-]=[N+]=[N-]		> 100	> 100			> 100	GI50 [8]: > 100 µM; GI50 [3]: > 100 µM; GI50 [4]: > 100 µM
CN(C)CCN=c1nc2c(c(N)n1-c1ccccc1)c(=S)n(-c1ccccc1)c(=S)n2-c1ccccc1				1.88	4.34 µM		
CCOC(=N)CC(=O)Nc1ccccc1CC	> 100	> 100	> 100			> 100	TGI [7]: > 100 µM; TGI [2]: > 100 µM
Cc1nc(C(=O)OCc2ccccc2)cc(OCc2ccccc2)c1C				18.8	> 100 µM		
C[C@@H]1CC2(C[C@@H](C)C3[C@@H](CC4(C)CCCC5C6=CC(O)(CC[C@]34C)OC6=CC(=O)OC5(C)C)O2)OC1=O (stereo partly drawn)	> 100	> 100	> 100			> 100	TGI [7]: > 100 µM
CCN(CC)c1ccc(/C=N/N=C(N)N)cc1				3.76	24.5 µM		
Fc1ccc(-c2ncn(C3CCNCC3)c2-c2ccnc(Oc3ccc(Cl)cc3)n2)cc1				2.74	6.71 µM		
N#C/C(=C/C=C/c1cccc(Cl)c1)S(=O)c1ccccc1 (stereo not drawn)				0.234	1.11 µM		
C=C1C(=O)O[C@@H]2C[C@@H](C)[C@@H]3C=CC(=O)[C@@]3(C)[C@@H](OC(=O)CCCC(=O)O[C@H]3[C@@H]4C(=C)C(=O)O[C@@H]4C[C@@H](C)[C@@H]4C=CC(=O)[C@]43C)[C@H]12					0.0666 µM		TGI [6]: 0.0431 µM
C=C(c1ccccc1)c1cc2c(=O)[nH]ccc2n1C		> 100	> 100			> 100	TGI [7]: 91 µM
COc1ccc(C2=NNC(c3sc(Cl)nc3Cl)C2)cc1 (stereo not drawn)				2.68	8.89 µM		

Compound	TGI [1] [µM]	TGI [3] [µM]	TGI [4] [µM]	GI50 [5] [µM]	TGI [5]	TGI [8] [µM]	also measured
O=C(Cc1nc2ccccc2s1)C(=O)Nc1cccc(C(F)(F)F)c1	> 100	> 100	> 100			> 100	
CCNc1ccc2c(c1)C(=O)N(OS(C)(=O)=O)C2=O					> 100 µM		TGI [6]: > 100 µM
CCCCS(=O)(=O)c1cc(Nc2ccc(O)c3c2C(=O)c2ccccc2C3=O)ccc1C				> 100	> 100 µM		
O=C(O)C1CC2C=CCC(C2)C1 (stereo not drawn)	> 100	> 100	> 100			> 100	TGI [7]: > 100 µM
C/C(=C\c1ccccc1)C(=O)c1c(C)cc(C)cc1C	> 100		> 100			> 100	TGI [7]: > 100 µM
Cn1cnnc1Sc1c([N+](=O)[O-])nc(-c2ccc([N+](=O)[O-])cc2)n1C	31.3	31.8	29.3			26.8	TGI [7]: 22.5 µM; TGI [2]: 32.8 µM
COc1c(OC2OC(C)C(O)C(O)C2O)c(OC)c2oc(-c3ccc(O)cc3)cc(=O)c2c1O (stereo not drawn)				22.3	> 100 µM		
Cc1nc(Nc2ccc(Cl)cc2)sc1C(=O)Nc1cccc2c(=O)[nH][nH]c(=O)c12		> 100	86.4			86.6	
BrCc1ccc2ccc3ccc(CBr)nc3c2n1	5.48	3.34				3.19	TGI [6]: 12.7 µM
NC(=S)c1cccc(C2Nc3ccccc3O2)c1 (stereo not drawn)					> 100 µM		
COc1cc(N)c(Cl)cc1C(=O)N[C@@H]1CCN(CCCOc2ccc(F)cc2)C[C@@H]1OC				27.3	> 100 µM		
COc1ccc(N=c2nc3sc4cc(Cl)ccc4n3c(N)c2C#N)cc1				39.1	> 100 µM		
Nc1ccc(C(=O)N/C(=C\c2ccc3c(c2)OCO3)c2nc3ccccc3s2)cc1		34.2	59.7			22.4	TGI [7]: 25.5 µM; TGI [2]: 35.1 µM
COc1ccccc1/C=C(\NC(=O)c1ccccc1)c1nc2ccccc2[nH]1	> 100		> 100			96.9	TGI [7]: > 100 µM; TGI [2]: > 100 µM
Cn1cc(-c2csc(-c3ccc(Cl)cc3)n2)c2cccnc21				5.17	36.4 µM		
NCCOCCOCC(=O)O		> 100				> 100	
COc1cccc(C=NC23CC4CC(CC(C4)C2)C3)c1		> 100					
COc1cc(C=NCC(=O)CSC(c2ccccc2)c2ccccc2)ccc1O				2.86	12.3 µM		
COC(=O)C1=C(O)c2cc(OC)c(OC)c(OC)c2C(c2ccc3c(c2)OCO3)[C@@H]1C(=O)OC (stereo partly drawn)	> 100	> 100	> 100			> 100	TGI [2]: > 100 µM
C=C(CN1CCN(c2ccccn2)CC1)c1ccc(C(=O)Nc2ccccc2N)cc1				1.23	20.9 µM		

Reference: PubChem BioAssay (NCI)
